Measured values taken from ChEMBL document CHEMBL1141127, “Investigation of the binding determinants of phosphopeptides targeted to the SRC homology 2 domain of the signal transducer and activator of transcription 3. Development of a high-affinity peptide inhibitor” (J Med Chem, 2005).
Square brackets hold non-standard residues; d marks the D form. Peptide text beside a SMILES is read from it. pY = N[C@@H](Cc1ccc(OP(=O)(O)O)cc1)C(=O)O; Dip = N[C@H](C(=O)O)C(c1ccccc1)c1ccccc1; NMeL = CN[C@@H](CC(C)C)C(=O)O

Tests used:
[1] = molecular target: T1, Signal transducer and activator of transcription 3 (Homo sapiens, UniProt P40763); test: Inhibitory concentration against signal transducer and activator of transcription 3 (stat3) using 5-carboxyfluoresceinyl-Ala-Tyr(PO3H2)-Leu-Pro-Gln-Thr-Val-NH2 by FP assay
[2] = molecular target: T1, Signal transducer and activator of transcription 3; test: Inhibitory concentration against signal transducer and activator of transcription 3 (stat3) by (EMSA) electrophoretic mobility shift assay

T1 sequence (P40763 whole entry): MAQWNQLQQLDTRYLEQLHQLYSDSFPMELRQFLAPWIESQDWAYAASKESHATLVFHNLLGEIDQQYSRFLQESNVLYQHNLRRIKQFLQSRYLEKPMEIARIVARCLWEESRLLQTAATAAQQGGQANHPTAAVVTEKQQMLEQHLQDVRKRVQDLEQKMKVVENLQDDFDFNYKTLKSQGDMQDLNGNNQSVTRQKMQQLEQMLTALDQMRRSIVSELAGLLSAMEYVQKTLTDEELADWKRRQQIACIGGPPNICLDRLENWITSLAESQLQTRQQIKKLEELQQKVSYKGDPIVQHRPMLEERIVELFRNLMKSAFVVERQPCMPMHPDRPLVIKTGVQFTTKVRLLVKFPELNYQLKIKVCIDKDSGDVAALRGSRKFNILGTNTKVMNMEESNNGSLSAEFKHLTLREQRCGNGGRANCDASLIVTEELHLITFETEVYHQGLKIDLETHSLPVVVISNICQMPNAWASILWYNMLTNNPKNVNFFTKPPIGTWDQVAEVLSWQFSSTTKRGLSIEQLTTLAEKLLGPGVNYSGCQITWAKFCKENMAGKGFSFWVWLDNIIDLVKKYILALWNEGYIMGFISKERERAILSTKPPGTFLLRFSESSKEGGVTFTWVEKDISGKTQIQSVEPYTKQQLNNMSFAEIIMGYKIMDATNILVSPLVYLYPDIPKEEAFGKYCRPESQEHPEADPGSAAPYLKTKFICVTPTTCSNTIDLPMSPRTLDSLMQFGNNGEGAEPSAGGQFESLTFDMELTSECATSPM

CC(=O)N[C@@H](Cc1ccc(OP(=O)(O)O)cc1)C(=O)N[C@@H](CC(C)C)C(=O)N1CCC[C@@H]1C(=O)N[C@@H](CCC(N)=O)C(=O)N[C@H](C(N)=O)[C@@H](C)O
IC50 [1]: > 100 µM

CC(=O)N[C@@H](Cc1ccc(OP(=O)(O)O)cc1)C(=O)N[C@@H](CC(C)C)C(=O)N1CCC[C@H]1C(=O)N[C@@H](CCC(N)=O)C(=O)N[C@H](C(N)=O)[C@@H](C)O
IC50 [2]: 600 nM

CC(=O)N[C@@H](Cc1ccc(OP(=O)(O)O)cc1)C(=O)N[C@@H](CC(C)C)C(=O)N1CCC[C@H]1C(=O)N[C@@H](CCC(N)=O)C(N)=O (Ac-[pY]LPQ-NH2)
IC50 [2]: 1000 nM

CC(=O)N[C@@H](Cc1ccc(OP(=O)(O)O)cc1)C(=O)N[C@H](C(=O)N1CCC[C@H]1C(=O)N[C@@H](CCC(N)=O)C(=O)N[C@H](C(N)=O)[C@@H](C)O)C(c1ccccc1)c1ccccc1 (Ac-[pY][Dip]PQT-NH2)
IC50 [1]: > 100 µM

CC(=O)N[C@@H](Cc1ccc(OP(=O)(O)O)cc1)C(=O)N(C)[C@@H](CC(C)C)C(=O)N1CCC[C@H]1C(=O)N[C@@H](CCC(N)=O)C(=O)N[C@H](C(N)=O)[C@@H](C)O (Ac-[pY][NMeL]PQT-NH2)
IC50 [1]: > 100 µM
